Data set [1] deals with A549 (carcinomic human alveolar basal epithelial cell). Nature of the data set: CCK-8 cytotoxicity assay, A549. The conditions noted are these: Homo sapiens, A549, 48 h, A549 cells, 48h, CCK-8. In kind it is cell-based. From the text:
(§1) The cytotoxic effects of the newly synthesized diphenyl(tetrahydro-5H-indeno[2,1-c]quinolin-2-yl)phosphine oxides 8, diphenyl(7H-indeno[2,1-c]quinolin-2-yl)phosphine oxides 9, and diphenyl(7-oxo-7H-indeno[2,1-c]quinolin-2-yl)phosphine oxides 10 derivatives were studied against several human cell lines: A549 (carcinomic human alveolar basal epithelial cell), SKOV3 (human ovarian carcinoma), and HEK293 (human embryonic kidney). Furthermore, in order to analyze the selective cytotoxicity facing exclusively cancerous cell lines, toxicity against a non-cancerous cell line (MRC-5, lung fibroblast cells) was also evaluated (Table 3). The cell counting kit (CCK-8) assay was employed to assess the growth inhibition and cell proliferation inhibitory activities of the compounds, which are described in Table 3 as IC50 values.
(§2) Cells were cultured according to the supplier’s instructions. Cells were seeded in 96-well plates at a density of 1.5–3 × 10^3 cells per well and incubated overnight in 0.1 mL of media supplied with 10% Fetal Bovine Serum (Lonza) in a 5% CO2 incubator at 37 °C. On day 2, drugs were added and the samples were incubated for 48h. After treatment, 10 μL of the cell counting kit-8 was added into each well for an additional 2h incubation at 37 °C. The absorbance of each well was determined by an Automatic Elisa Reader System at 450 nm wavelength (deducting 620 nm). CPT was used as the positive control.

Data set [2] has as its system SKOV3 (human ovarian carcinoma). Nature of the data set: CCK-8 cytotoxicity assay, SKOV3. The conditions noted are these: SK-OV-3, SKOV3 cells, 48h. In kind it is cell-based.
Text: as §1, §2
(Tetrazolium assays rely on reduction of a dye to a coloured formazan, in cell work by metabolically active cells.)

Data set [3] concerns MRC-5, lung fibroblast cells. Nature of the data set: CCK-8 cytotoxicity assay, MRC5. The conditions noted are these: for IC50: Homo sapiens, MRC5 non-cancerous cells, 48h, CCK-8. In kind it is cell-based, human.
Text: as §1, §2

Data set [4] concerns the target T1, human TOP1 (Homo sapiens, UniProt P11387).
T1 construct: made in house; host or cells: Saccharomyces cerevisiae TOP1 null strain RS190, plasmid pHT143 (GAL promoter)
T1 sequence (P11387 1-765): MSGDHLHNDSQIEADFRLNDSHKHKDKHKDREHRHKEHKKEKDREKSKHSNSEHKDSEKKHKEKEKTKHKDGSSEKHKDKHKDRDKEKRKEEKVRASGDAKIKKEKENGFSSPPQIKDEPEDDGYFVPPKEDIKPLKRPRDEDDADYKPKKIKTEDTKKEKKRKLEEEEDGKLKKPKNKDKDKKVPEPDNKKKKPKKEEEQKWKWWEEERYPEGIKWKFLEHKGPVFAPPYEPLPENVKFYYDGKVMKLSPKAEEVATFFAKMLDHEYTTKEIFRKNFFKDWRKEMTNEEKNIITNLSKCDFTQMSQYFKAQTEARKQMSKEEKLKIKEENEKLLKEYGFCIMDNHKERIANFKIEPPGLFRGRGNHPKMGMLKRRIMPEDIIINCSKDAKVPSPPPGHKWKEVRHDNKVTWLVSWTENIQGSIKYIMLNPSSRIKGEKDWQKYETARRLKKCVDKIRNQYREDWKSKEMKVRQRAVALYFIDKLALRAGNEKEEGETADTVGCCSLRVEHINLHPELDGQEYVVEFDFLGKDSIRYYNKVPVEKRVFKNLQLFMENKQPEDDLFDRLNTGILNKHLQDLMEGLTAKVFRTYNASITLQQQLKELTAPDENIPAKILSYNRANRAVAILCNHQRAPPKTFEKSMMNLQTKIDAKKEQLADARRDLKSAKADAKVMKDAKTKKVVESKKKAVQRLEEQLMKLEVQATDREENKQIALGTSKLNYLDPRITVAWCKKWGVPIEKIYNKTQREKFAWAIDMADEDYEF
Put plainly: TOP1 supercoiled plasmid DNA relaxation assay. Particulars: for TOP1 Inhibition 30 min: 30 min reaction, compounds at 100 μM, semiquantitative; for TOP1 relaxation activity after preincubation of compound with DNA: 100 μM, compound incubated with DNA for 15 min at 37 °C before TOP1 was added. The format is biochemical.

The target of data set [5] is T1, human TOP1. Nature of the data set: TOP1 supercoiled plasmid DNA relaxation assay. In kind it is biochemical. The conditions noted are these: for Persistence of TOP1 inhibition over the time course / TOP1 relaxation activity after preincubation of compound with TOP1: 100 μM; for Persistence of TOP1 inhibition over the time course: in words; for TOP1 Inhibition 1 min: 1 min reaction; for TOP1 Inhibition 1 min / TOP1 Inhibition 3 min / TOP1 Inhibition 5 min: compounds at 100 μM, semiquantitative; for TOP1 Inhibition 3 min: 3 min reaction; for TOP1 Inhibition 5 min: 5 min reaction; for TOP1 relaxation activity after preincubation of compound with TOP1: compound incubated with TOP1 for 15 min at 37 °C, then DNA added. From the text: The effect of the previously prepared compounds as TOP1 inhibitors was studied. A conventional supercoiled plasmid relaxation assay was used to determine if the newly fused tetrahydroindenoquinolines 8, more aromatic indenoquinolines 9, and carbonyl derivatives 10 with phosphine oxide substituents inhibit human TOP1 activity by converting supercoiled plasmid DNA to its relaxed form. In these experiments, compound samples were mixed with the enzyme followed by the addition of a supercoiled plasmid DNA substrate, and incubation continued for increasing time intervals (1 min, 3 min, and 5 min). The reaction was terminated by the addition of SDS. DNA relaxation products were then resolved by 1% agarose electrophoresis gel and visualized by gel red staining.
The yeast Saccaromyces cerevisiae TOP1 null strain RS190, which was used for the expression of recombinant human TOP1, was a kind gift from R. Sternglanz (State University of New York, Stony Brook, NY, USA). Plasmid pHT143, for the expression of recombinant TOP1 under the control of an inducible GAL promoter, was described. The plasmids pHT143 were transformed into the yeast S. cerevisiae strain RS190. The proteins were expressed and purified by affinity chromatography essentially as described. The protein concentrations were estimated from Coomassie blue-stained SDS/polyacrylamide gels by comparison to serial dilutions of bovine serum albumin (BSA).
TOP1 activity was assayed using a DNA relaxation assay by incubating 110 ng/mL of TOP1 with 0.5 µg of negatively supercoiled pUC18 in […] of reaction buffer (20 mM Tris HCl, 0.1 mM Na2EDTA, 10 mM MgCl2, […] acetylated BSA, and 150 mM KCl, pH 7.5). The effect of the synthesized phosphorylated derivatives 8, 9, and 10 on the TOP1 activity was measured by adding different concentrations of the compounds, at different time points, as indicated in the text. The reactions were performed at 37 °C stopped by the addition of 0.5% SDS after the indicated time intervals. The samples were protease-digested and electrophoresed in a horizontal 1% agarose gel in 1xTBE (50 mM Tris, 45 mM boric acid, 1 mM EDTA) at 25V during 18h. The gel was stained with gel red (BIOTIUM, 5 mg/mL), destained with water, and photographed under UV illumination. Since all drugs were dissolved in dimethyl sulfoxide (DMSO), a […] control sample containing the same DMSO concentration as the samples incubated with the drugs was included in all experiments.

The subject of data set [6] is HEK293 (human embryonic kidney). Nature of the data set: CCK-8 cytotoxicity assay, HEK293. In kind it is cell-based. The conditions noted are these: HEK293 cells, 48h.
Text: as §1, §2

Experimental findings from paper PMC11678328, “Phosphine Oxide Indenoquinoline Derivatives: Synthesis and Biological Evaluation as Topoisomerase I Inhibitors and Antiproliferative Agents” (Molecules, 2024) are described below.

The term IC50 denotes the point on the concentration scale where inhibition reaches its midpoint. A low value points to greater potency in that assay. Consider `CC[C@@]1(O)C(=O)OCc2c1cc1n(c2=O)Cc2cc3ccccc3nc2-1` [CPT, camptothecin, reference compound], for which, in data set [1], 0.001 µM corresponded to half-maximal inhibition (IC50). The same compound displayed an IC50 in data set [2] of 0.0055 µM. The IC50 in data set [3] stood at 0.11 ± 0.02 µM. Further, the “Cytotoxicity against MRC5 (in words)” value in data set [3] (non-cancerous cell line) is “high toxicity”. In data set [4], the “TOP1 Inhibition 30 min” value is “− (no inhibition)”. Moreover, in data set [5], the “Persistence of TOP1 inhibition over the time course” value is given as “short-term reversible effect”, the “TOP1 Inhibition 1 min” value is recorded as “++”, the “TOP1 Inhibition 3 min” value is reported as “− (no inhibition)” and the “TOP1 Inhibition 5 min” value is listed as “− (no inhibition)”.
In the case of `O=P(c1ccccc1)(c1ccccc1)c1ccc2c(c1)C1c3ccccc3CC1C(c1ccccc1)N2` (centres unmarked) [Compound 8a, Diphenyl(6-phenyl-6,6a,7,11b-tetrahydro-5H-indeno[2,1-c]quinolin-2-yl)phosphine oxide], in data set [1], half-maximal inhibition (IC50) was put at 40.2 ± 7.13 µM. The same compound displayed an IC50 in data set [2] of 6.35 ± 1.73 µM. Also, the IC50 in data set [3] was greater than 50 µM. Moreover, the “TOP1 Inhibition 30 min” value in data set [4] is recorded as “++”. Further, in data set [5], the “Persistence of TOP1 inhibition over the time course” value is given as “more persistent inhibition”, the “TOP1 Inhibition 1 min” value is “++”, the “TOP1 Inhibition 3 min” value is recorded as “++” and the “TOP1 Inhibition 5 min” value was “++”.
Consider `O=P(c1ccccc1)(c1ccccc1)c1ccc2c(c1)C1c3ccccc3CC1C(c1ccc(C(F)(F)F)cc1)N2` (centres unmarked) [Compound 8b, Diphenyl(6-(4-(trifluoromethyl)phenyl)-6,6a,7,11b-tetrahydro-5H-indeno[2,1-c]quinolin-2-yl)phosphine oxide], for which the IC50 in data set [1] is 25.8 ± 6.98 µM. Moreover, in data set [2], the IC50 is greater than 50 µM. This compound showed an IC50 in data set [6] greater than 50 µM. Moreover, in data set [3], the IC50 was greater than 50 µM. Besides, in data set [4], the “TOP1 relaxation activity after preincubation of compound with DNA” value is given as “partially relaxing the DNA” and the “TOP1 Inhibition 30 min” value is “+++ (strong inhibition)”. In addition, in data set [5], the “TOP1 relaxation activity after preincubation of compound with TOP1” value was “the enzyme was inactive, not being able to relax the DNA”; the “Persistence of TOP1 inhibition over the time course” value is given as “more persistent inhibition”; the “TOP1 Inhibition 1 min” value was “+++ (strong inhibition)”; the “TOP1 Inhibition 3 min” value is reported as “+++ (strong inhibition)”. For the same compound, the “TOP1 Inhibition 5 min” value in data set [5] is “+++ (strong inhibition)”.
On to `O=P(c1ccccc1)(c1ccccc1)c1ccc2c(c1)C1c3ccccc3CC1C(c1ccc(F)cc1)N2` (centres unmarked) [Compound 8c, Diphenyl(6-(4-fluorophenyl)-6,6a,7,11b-tetrahydro-5H-indeno[2,1-c]quinolin-2-yl)phosphine oxide], for which the IC50 in data set [1] was 19.9 ± 3.35 µM; in data set [2], greater than 50 µM; in data set [6] it was greater than 50 µM; in data set [3] it was 10.7 ± 0.43 µM. Moreover, in data set [4], the “TOP1 Inhibition 30 min” value is “++”. Moreover, in data set [5], the “TOP1 Inhibition 1 min” value is on record as “++”. In data set [5], the “TOP1 Inhibition 3 min” value is reported as “++”. For the same compound, the “TOP1 Inhibition 5 min” value in data set [5] is recorded as “++”.
As to `O=P(c1ccccc1)(c1ccccc1)c1ccc2c(c1)C1c3ccccc3CC1C(c1cccc3ccccc13)N2` (centres unmarked) [Compound 8g, Diphenyl(6-(naphthalen-1-yl)-6,6a,7,11b-tetrahydro-5H-indeno[2,1-c]quinolin-2-yl)phosphine oxide], the IC50 in data set [1], in data set [2], in data set [6] and in data set [3] was greater than 50 µM throughout. In addition, the “TOP1 Inhibition 30 min” value in data set [4] was “+ (weak inhibition)”. Moreover, the “TOP1 Inhibition 1 min” value in data set [5] is on record as “+ (weak inhibition)”. Besides, in data set [5], the “TOP1 Inhibition 3 min” value is given as “+ (weak inhibition)”. In data set [5], the “TOP1 Inhibition 5 min” value is reported as “+ (weak inhibition)”.
Regarding `O=[N+]([O-])c1ccc(C2Nc3ccc(P(=O)(c4ccccc4)c4ccccc4)cc3C3c4ccccc4CC23)cc1` (centres unmarked) [Compound 8k, Diphenyl(6-(4-nitrophenyl)-6,6a,7,11b-tetrahydro-5H-indeno[2,1-c]quinolin-2-yl)phosphine oxide], the half-maximal inhibitory concentration (IC50) in data set [1], in data set [2], in data set [6] and in data set [3] was greater than 50 µM each time. Besides, the “TOP1 Inhibition 30 min” value in data set [4] was “+ (weak inhibition)”. Moreover, the “Persistence of TOP1 inhibition over the time course” value in data set [5] is recorded as “more persistent inhibition”. Also, the “TOP1 Inhibition 1 min” value in data set [5] is on record as “+ (weak inhibition)”. Moreover, the “TOP1 Inhibition 3 min” value in data set [5] is given as “+ (weak inhibition)”. The “TOP1 Inhibition 5 min” value in data set [5] is recorded as “+ (weak inhibition)”.
Compound `O=P(c1ccccc1)(c1ccccc1)c1ccc2nc(-c3ccc(C(F)(F)F)cc3)c3c(c2c1)-c1ccccc1C3` [Compound 9b, Diphenyl(6-(4-(trifluoromethyl)phenyl)-7H-indeno[2,1-c]quinolin-2-yl)phosphine oxide] yielded a 50% inhibitory concentration (IC50) in data set [1] greater than 50 µM. Moreover, in data set [2], the 50% inhibitory concentration (IC50) is greater than 50 µM. Besides, the IC50 in data set [6] is greater than 50 µM. The same compound yielded a half-maximal inhibitory concentration (IC50) in data set [3] greater than 50 µM. In data set [4], the “TOP1 relaxation activity after preincubation of compound with DNA” value is on record as “partially relaxing the DNA” and the “TOP1 Inhibition 30 min” value is “+++ (strong inhibition)”. In data set [5], the “TOP1 relaxation activity after preincubation of compound with TOP1” value is “the enzyme was inactive, not being able to relax the DNA”; the “TOP1 Inhibition 1 min” value was “+++ (strong inhibition)”; the “TOP1 Inhibition 3 min” value was “+++ (strong inhibition)”; the “TOP1 Inhibition 5 min” value is listed as “+++ (strong inhibition)”.
On to `O=P(c1ccccc1)(c1ccccc1)c1ccc2nc(-c3cccc4ccccc34)c3c(c2c1)-c1ccccc1C3` [Compound 9g, Diphenyl(6-(naphthalen-1-yl)-7H-indeno[2,1-c]quinolin-2-yl)phosphine oxide], for which the IC50 in data set [1], in data set [2], in data set [6] and in data set [3] was greater than 50 µM each time. Further, the “TOP1 Inhibition 30 min” value in data set [4] was “++”. Also, the “TOP1 Inhibition 1 min” value in data set [5] was “++”. Also, in data set [5], the “TOP1 Inhibition 3 min” value was “++”. Further, the “TOP1 Inhibition 5 min” value in data set [5] is recorded as “++”.
